Like-named read-outs stand apart in the source and are kept apart here.
How the values were obtained:
mouse model of epilepsy = settings: cited from earlier work
[1] = test system: male children with Autism Spectrum Disorder (ASD); assay: Efficacy by Aberrant Behavior Checklist (ABC) versus suramin blood levels in the ASD trial; type: in vivo, human; settings: 10 or 20 mg/kg IV
Description: (§1) This is the first time that multiple doses were studied in patients with neurodevelopmental disorders, and where they were observed over a long term duration. Previously, only a single 20 mg/kg dose had been described in an ASD study. See, R. K. Naviaux, “Antipurinergic therapy for autism—An in-depth review”, Mitochondrion 43, pp. 1-15 (2018), available online Dec. 16, 2017.
Each study participant attended a total of 7 visits, screening period (Visit 1.14 days), Randomization visit (Visit 2 day 1), treatment follow up visits (visit 3; day 14), treatment visit (visit 4; Day 28), treatment visit (visit 5; Day 56), End of treatment visit (visit 6; Day 77) and EOS (visit 7; day 98). Window period for screening until visit 2 will be ±14 days (thus the study procedures can be performed over 14 days) and for visit 2 onwards will be ±2 days (thus the procedures can be performed over 5 days) (Visit 2 to 7).

[2] = test system: male children with Autism Spectrum Disorder (ASD); assay: Adverse effects in the ASD trial; type: in vivo, human
Description: as §1
Since only predose, 1 hour post dose, and before the next dose administration samples were collected, it was not possible to determine the exact distribution and elimination curves and therefore extrapolated parameters such as AUC0-∞ and T1/2 were not determinable.

[3] = cited from earlier work
[4] = Suramin plasma pharmacokinetics in three-arm, randomized, double blind, placebo-controlled trial, intravenous infusion; type: in vivo, human; settings: for Plasma Concentration / AUCInterval / AUCinterval/Dose / Cmax/Dose / Cmin / AUCOverall / AUCVisit 4 / AUCVisit 5 / AUCVisit 7 / Cmin, Visit 5 / Cmin, Visit 7 / Cmin. overall / Cmax / concentration at 28 day: mean; for half-life / Cmax / concentration at 28 day: male, human, plasma; for half-life: intravenous; for concentration at 28 day: read-out: Cmin, Visit 4
Source text: The following Table 2 outlines the visit schedule:
A non-compartmental pharmacokinetic (PK) approach consistent with the intravenous route of administration was used to estimate PK parameters in Watson LIMS software (version 7.5). […] All concentration values were in μg/mL, and all time points were in days as provided by the bioanalytical testing facility. Nominal dose concentrations and sampling times were used. The area under the plasma concentration-time curve (AUC) estimations were calculated on profiles having at least a quantifiable post-dose and pre-dose prior to the next dosing occasion. The observed maximum plasma concentration (Cmax) and time of Cmax (Tmax) were determined directly from the data.
Pharmacokinetic parameters were estimated using a non-compartmental approach consistent with intravenous infusion route of administration.
For area under the curve (AUC) estimation, measured plasma concentration for post dose and pre dose before the next dosing event were needed. For this study, samples for pharmacokinetic analysis were collected on days 1, 28, 56, and 96.
Whenever possible, standard deviation and coefficient of variation were determined by Watson LIMS software. For analyses that were not supported by Watson (i.e. custom comparisons), Excel was used and the statistics reported as determined by excel algorithms. Note that in either case, when the number of data points was less than three, standard deviation and coefficient of variation could not be calculated.
The route of administration was intravenous infusion over a 30 minute period on visits 2, 4, and 5.

[5] = 10 mg/kg to 20 mg/kg dose range
[6] = Table 3A, 10 mg dose group, IV, children
[7] = Table 3C, 20 mg dose group, IV, children
[8] = Table 7, 10 mg/kg Dose, n = 13, IV
[9] = Table 7, 20 mg/kg Dose, n = 14, IV

Q: Which epileptic seizures (mouse model of epilepsy) does the source give for `O=C(NCC1(N2CCN(c3ccccc3)CC2)CCOCC1)c1cccnc1Sc1ccccc1` [JNJ-47965567, 2-(Phenylthio)-N-[[tetrahydro-4-(4-phenyl-1-piperazinyl)-2H-pyran-4-yl]methyl]-3-pyridinecarboxamide] here?
A: suppress epileptic seizures

Q: What does the source list for `Cc1ccc(C(=O)Nc2ccc(S(=O)(=O)O)c3cc(S(=O)(=O)O)cc(S(=O)(=O)O)c23)cc1NC(=O)c1cccc(NC(=O)Nc2cccc(C(=O)Nc3cc(C(=O)Nc4ccc(S(=O)(=O)O)c5cc(S(=O)(=O)O)cc(S(=O)(=O)O)c45)ccc3C)c2)c1` [suramin, 1,3,5-Naphthalenetrisulfonic acid, 8,8′-[carbonylbis[imino-3,1-phenylenecarbonylimino(4-methyl-3,1-phenylene)carbonylimino]]bis-]?
A: change in ABC scores from baseline versus exposure [1]: A greater change in ABC scores from baseline was observed with lower exposures; correlation between blood levels and efficacy (ABC) ([1]; multiple doses): dynamic nonlinear correlation between antipurinergic blood levels and efficacy; adverse effects such as visible rash or vomiting ([2]; 10 mg/kg dose group): only one event; adverse effects such as visible rash or vomiting ([2]; 20 mg/kg dose group): occurred mostly in the 20 mg/kg dose group; half-life, average ([3]; average): 50 days; oral bioavailability ([3]; in vivo, po): poor oral bioavailability; Plasma Concentration ([4]; 10 mg/kg IV, visit 2, day 1, 1 h post-infusion): 229000 ng/mL; Plasma Concentration ([4]; 10 mg/kg IV, visit 4, day 28, 1 h post-infusion): 157000 ng/mL; Plasma Concentration ([4]; 10 mg/kg IV, visit 4, day 28, pre-dose): 4310 ng/mL; Plasma Concentration ([4]; 10 mg/kg IV, visit 5, day 56, 1 h post-infusion): 164000 ng/mL; Plasma Concentration ([4]; 10 mg/kg IV, visit 5, day 56, pre-dose): 7960 ng/mL; Plasma Concentration ([4]; 10 mg/kg IV, visit 7, day 96, EOS): 7870 ng/mL; Dose proportionality of AUC0-96 [4, 5]: nearly dose proportional; Dose proportionality of Cmax [4, 5]: less than dose proportional; Plasma Concentration ([4]; 20 mg/kg IV, visit 2, day 1, 1 h post-infusion): 328000 ng/mL; Plasma Concentration ([4]; 20 mg/kg IV, visit 4, day 28, 1 h post-infusion): 327000 ng/mL; Plasma Concentration ([4]; 20 mg/kg IV, visit 4, day 28, pre-dose): 11000 ng/mL; Plasma Concentration ([4]; 20 mg/kg IV, visit 5, day 56, 1 h post-infusion): 332000 ng/mL; Plasma Concentration ([4]; 20 mg/kg IV, visit 5, day 56, pre-dose): 21100 ng/mL; Plasma Concentration ([4]; 20 mg/kg IV, visit 7, day 96, EOS): 23400 ng/mL; AUCInterval [4, 6]: 4780 µg·days/mL; AUCinterval/Dose [4, 6]: 478 µg·days/mL/mg; Cmax/Dose [4, 6]: 24.4 µg/mL/mg; Cmin [4, 6]: 4300 ng/mL; AUCInterval [4, 7]: 9510 µg·days/mL; AUCinterval/Dose [4, 7]: 475 µg·days/mL/mg; Cmax/Dose [4, 7]: 18.3 µg/mL/mg; Cmin [4, 7]: 10600 ng/mL; AUCOverall [4, 8]: 4600.0 µg·days/mL; AUCVisit 4 [4, 8]: 1195.6 µg·days/mL; AUCVisit 5 [4, 8]: 1386.7 µg·days/mL; AUCVisit 7 [4, 8]: 2017.7 µg·days/mL; AUCinterval/Dose [4, 8]: 460.0 µg·days/mL/mg; Cmax/Dose [4, 8]: 18.1 µg/mL/mg; Cmin, Visit 5 [4, 8]: 7700 ng/mL; Cmin, Visit 7 [4, 8]: 7700 ng/mL; Cmin. overall [4, 8]: 4400 ng/mL; AUCOverall [4, 9]: 10203.6 µg·days/mL; AUCVisit 4 [4, 9]: 2431.4 µg·days/mL; AUCVisit 5 [4, 9]: 3121.4 µg·days/mL; AUCVisit 7 [4, 9]: 4650.7 µg·days/mL; AUCinterval/Dose [4, 9]: 510.1 µg·days/mL/mg; Cmax/Dose [4, 9]: 18.0 µg/mL/mg; Cmin, Visit 5 [4, 9]: 21900 ng/mL; Cmin, Visit 7 [4, 9]: 24200 ng/mL; Cmin. overall [4, 9]: 10600 ng/mL; half-life ([4]; 10 mg low dose level, inferred from lack of accumulation): < 28 days; half-life ([4]; 20 mg high dose level, inferred from accumulation): > 28 days; Cmax ([4]; Table 3A, 10 mg dose group, IV, children, read-out: Cmax): 244000 ng/mL; Cmax ([4]; Table 3C, 20 mg dose group, IV, children, read-out: Cmax): 365000 ng/mL; Cmax ([4]; Table 7, 10 mg/kg Dose, n = 13, IV, read-out: Cmax, Oveall): 181000 ng/mL; concentration at 28 day [4, 8]: 4400 ng/mL; Cmax ([4]; Table 7, 20 mg/kg Dose, n = 14, IV, read-out: Cmax, Oveall): 359000 ng/mL; concentration at 28 day [4, 9]: 10900 ng/mL
